Laboratory results as given in the Deep4Chem optical property database.
Values joined by “and” are separate entries in the source; they are usually repeats but may differ in a detail not shown here. Equal values may be shown once. Each block holds one compound with its values, some of them ahead of it.

Experiment: solvent given as SMILES

absorption maximum (in C1CCOC1): 301.5 nm | absorption maximum (in CC#N): 281.6 nm | absorption maximum (in CCCCCC): 286.9 nm | absorption maximum (in CCOC(C)=O): 286.1 nm | absorption maximum (in CN(C)C=O): 287.1 nm | absorption maximum (in CO): 282.1 nm | absorption maximum (in CS(C)=O): 283.5 nm | absorption maximum (in ClC(Cl)Cl): 288.3 nm
SMILES: Cc1ccc(NC(=O)c2sc(Br)nc2C)cc1

SMILES: CCN(CC)c1ccc2cc(/C(Cl)=C/C=C/C(=C(C#N)C#N)c3ccc4c(c3)c3ccccc3n4CC)c(=O)oc2c1
absorption maximum (in CC(C)=O): 518 nm | absorption maximum (in CCOC(C)=O): 508 nm | absorption maximum (in CN(C)C=O): 532 nm | absorption maximum (in CS(C)=O): 538 nm | absorption maximum (in Cc1ccccc1): 508 nm | absorption maximum (in ClCCl): 526 nm

absorption maximum (in CS(C)=O): 634 nm
SMILES: COc1ccc(-c2c3nc(cc4ccc([nH]4)c(-c4ccc(OC)c(OCCCC(=O)O)c4)c4nc(cc5ccc2[nH]5)C=C4)C=C3)cc1OCCCC(=O)O

absorption maximum (in ClCCl): 485 nm
SMILES: CCCCN1C(=O)C2=C(c3ccc(-c4ccccc4)cc3)NC(=O)C2=C1c1ccc(-c2ccccc2)cc1

SMILES: O=S(=O)(c1ccc(-c2ccc(-c3nc4c5ccccc5c5ccccc5c4n3-c3ccccc3)cc2)cc1)c1ccc(-c2ccc(-c3nc4c5ccccc5c5ccccc5c4n3-c3ccccc3)cc2)cc1
absorption maximum (in C1CCOC1): 368 nm | absorption maximum (in CC#N): 368 nm | absorption maximum (in CC(C)=O): 368 nm | absorption maximum (in CC(C)OC(C)C): 368 nm | absorption maximum (in CCCCCC): 368 nm | absorption maximum (in CCCCOCCCC): 368 nm | absorption maximum (in CCN(CC)CC): 368 nm | absorption maximum (in CCOC(C)=O): 368 nm | absorption maximum (in CCOCC): 368 nm | absorption maximum (in CN(C)C=O): 368 nm | absorption maximum (in ClC(Cl)Cl): 368 nm | absorption maximum (in ClCCl): 368 nm

SMILES: COc1ccccc1-c1nc2c3ccccc3c3ccccc3c2o1
absorption maximum (in Cc1ccccc1): 364 nm

SMILES: c1ccc2c(c1)Cc1ccccc1N2c1c2ccccc2cc2ccccc12
absorption maximum (in Cc1ccccc1): 416 nm

SMILES: Cc1ccc(N2C(c3ccccc3NS(=O)(=O)c3ccc(C)cc3)=NC(c3ccccc3)C2c2ccccc2)cc1 (stereo not drawn)
absorption maximum (in Cc1ccccc1): 300 nm

SMILES: COc1cc2c3c4c(c5ccc(C(C)(C)C)cc5c5c(OC)c(OC)c(OC)c(c2c(OC)c1OC)c45)=[N+]1C3=Nc2c3c4cc(OC)c(OC)c(OC)c4c4c(OC)c(OC)c(OC)c5c6cc(C(C)(C)C)ccc6c(c3c54)n2[B-]1(F)F
absorption maximum (in Cc1ccccc1): 850 nm

SMILES: CC1=[N+]2C(=C(c3ccc(N(C)C)cc3)c3ccc(C)n3[B-]2(F)F)C=C1
absorption maximum (in C1CCCCC1): 508 nm | absorption maximum (in C1CCOC1): 506 nm | absorption maximum (in CC#N): 503 nm | absorption maximum (in CC(=O)C(C)(C)C): 505 nm | absorption maximum (in CC(C)=O): 504 nm | absorption maximum (in CCCCCC): 507 nm | absorption maximum (in CCOC(C)=O): 505 nm and 504 nm | absorption maximum (in CO): 504 nm and 503 nm | absorption maximum (in Cc1ccccc1): 509 nm | absorption maximum (in ClC(Cl)Cl): 509 nm

absorption maximum (in CC#N): 380 nm | absorption maximum (in CCCCCC): 384 nm | absorption maximum (in CO): 380 nm | absorption maximum (in CS(C)=O): 390 nm | absorption maximum (in ClC(Cl)Cl): 384 nm
SMILES: N#Cc1ccc(N/N=C/c2ccc3ccccc3c2O)cc1

absorption maximum (in ClCCl): 325 nm
SMILES: C(#Cc1ncc(-c2ccccc2)o1)c1ccco1

SMILES: O=S1(=O)C2=C(c3ccc(N(c4ccccc4)c4ccccc4)cc31)C1(C3=C(c4ccccc41)S(=O)(=O)c1cc(N(c4ccccc4)c4ccccc4)ccc13)c1ccccc12
absorption maximum (in C1CCOC1): 443 nm | absorption maximum (in CC#N): 446 nm | absorption maximum (in CCCCCC): 434 nm | absorption maximum (in Cc1ccccc1): 450 nm | absorption maximum (in ClCCl): 451 nm

SMILES: c1ccc2c(c1)c1ccccc1n2-c1ccc(-c2ccc(-n3c4ccccc4c4ccccc43)nc2-n2c3ccccc3c3ccccc32)nn1
absorption maximum (in CC#N): 335 nm | absorption maximum (in Cc1ccccc1): 346 nm | absorption maximum (in ClCCl): 337 nm

absorption maximum (in CCO): 369 nm
SMILES: O=c1c2cc(F)c(N3CCCCC3)cc2oc2cc(N3CCCCC3)c(F)cc12

absorption maximum (in ClC(Cl)Cl): 412 nm
SMILES: CCN(CC)c1ccc2cc(-c3ccc(-c4ccc5c6ccccc6c6c7cc(-c8ccc(-c9cc%10ccc(N(CC)CC)cc%10oc9=O)cc8)ccc7c7ccccc7c6c5c4)cc3)c(=O)oc2c1

SMILES: Cc1ccc(N2C(c3ccccc3[NH-])=[NH+]C(c3ccccc3)C2c2ccccc2)cc1 (stereo not drawn)
absorption maximum (in Cc1ccccc1): 328 nm

absorption maximum (in ClCCl): 683 nm
SMILES: F[B-]1(F)n2c(-c3ccccc3)cc(-c3cccs3)c2N=C2C(c3cccs3)=CC(c3ccccc3)=[N+]21

absorption maximum (in ClCCl): 388 nm
SMILES: c1ccc(B2Nc3cc4c(cc3-c3occc32)NB(c2ccccc2)c2ccoc2-4)cc1

absorption maximum (in ClC(Cl)Cl): 382 nm
SMILES: CCC[Si](CCC)(CCC)c1cc2ccc3cccc4ccc(c1C(=O)NC(C)(C)C)c2c34

SMILES: C[C@]12C(=O)NC(=O)N([C@H]3CC(O)[C@@H](CO)O3)[C@H]1[C@H]1Oc3cc4oc(=O)ccc4cc3[C@H]12 (stereo partly drawn)
absorption maximum (in CC(C)O): 327 nm | absorption maximum (in CCO): 327 nm | absorption maximum (in CCOCC): 325 nm | absorption maximum (in CO): 328 nm | absorption maximum (in O): 329 nm

SMILES: CC(=O)[B-]1(C(C)=O)OC(c2ccccc2)=CC(c2ccc3ccccc3c2)=[O+]1
absorption maximum (in CC#N): 400 nm | absorption maximum (in ClC(Cl)(Cl)Cl): 400 nm

SMILES: CCN(CC)c1ccc(-c2cc3c(s2)c(C(=O)OC)cc(=O)n3C)cc1
absorption maximum (in C1CCOC1): 436 nm | absorption maximum (in CC#N): 436 nm | absorption maximum (in CCO): 444 nm | absorption maximum (in CO): 444 nm | absorption maximum (in CS(C)=O): 446 nm | absorption maximum (in Cc1ccccc1): 434 nm

absorption maximum (in O): 323 nm
SMILES: Cc1cn(C)c(=O)nc1-n1cncn1

absorption maximum (in ClCCl): 437 nm
SMILES: CCCCCCn1c(=O)c2c3oc4ccccc4sc3c3c(=O)n(CCCCCC)c(=O)c3c2c1=O

SMILES: Cc1ccc2c(c1)c1cc(C)ccc1n2-c1cccc(-n2c3ccc(C)cc3c3cc(C)ccc32)c1C#N
absorption maximum (in Cc1ccccc1): 368 nm

absorption maximum (in ClCCl): 576 nm
SMILES: CC1=C(C#Cc2ccc(B(c3c(C)cc(C)cc3C)c3c(C)cc(C)cc3C)cc2)C(C)=[N+]2C1=C(c1ccccc1)c1c(C)c(C#Cc3ccc(B(c4c(C)cc(C)cc4C)c4c(C)cc(C)cc4C)cc3)c(C)n1[B-]2(F)F

absorption maximum (in ClCCl): 384 nm
SMILES: Cc1cccc(C)c1/C=C/c1nc(N2CCOCC2)c2c([n+]1[O-])CCCC2

absorption maximum (in CC1CCCCC1): 336 nm | absorption maximum (in CC#N): 343 nm | absorption maximum (in CO): 346 nm
SMILES: COC(=O)C(NC(=O)OC(C)(C)C)c1ccc2oc(-c3ccc(N(C)C)cc3OC)nc2c1 (stereo not drawn)

absorption maximum (in CCO): 377 nm
SMILES: Cc1c(C)n2c(COC(=O)c3ccccc3I)c(C)c(=O)n2c1=O

SMILES: O=Cc1ccc2nc(C#Cc3ccc(N(c4ccccc4)c4ccccc4)cc3)sc2c1
absorption maximum (in Cc1ccccc1): 411 nm

absorption maximum (in ClCCl): 646 nm
SMILES: CCN(CC)c1ccc2c(-c3ccccc3C(=O)O)c3c([o+]c2c1)/C(=C/c1ccc2c(c1)c1ccccc1n2CC)CCC3

absorption maximum (in CCO): 373 nm
SMILES: O=c1c2cc(F)c(O)cc2oc2cc(N3CCCCC3)c(F)cc12

absorption maximum (in CC#N): 360 nm | absorption maximum (in CCO): 340 nm
SMILES: O=c1c(-c2ccc(O)cc2)coc2cc(O)cc(O)c12

absorption maximum (in C1COCCO1): 403 nm
SMILES: COC(=O)c1ccc(/C=C2\N=C(c3ccc(OC)c(OC)c3)NC2=O)cc1

absorption maximum (in ClCCl): 382 nm
SMILES: CCCCC(CC)COc1ccc2nc(-c3ccc(-c4cccs4)s3)sc2c1 (stereo not drawn)

absorption maximum (in C1CCCCC1): 316 nm | absorption maximum (in C1CCOC1): 319 nm | absorption maximum (in CC#N): 320 nm | absorption maximum (in CCO): 322 nm | absorption maximum (in CO): 320 nm | absorption maximum (in ClC(Cl)Cl): 325 nm
SMILES: CCCCCCOc1ccc(-c2cnc(-c3nnc(-c4ccc(OCCCCCC)cc4)o3)o2)cc1

SMILES: COCCC1=Cc2nc1ccc1[nH]c(cc1CCOC)c1nc(c(OC(C)=O)cc3[nH]c2cc3CCOC)C(CCOC)=C1
absorption maximum (in Cc1ccccc1): 647 nm
